Test results as given in ChEMBL document CHEMBL2074008, “Structural determinants of P-glycoprotein-mediated transport of glucocorticoids” (Pharm Res, 2003).

Each molecule was assayed against ATP-dependent translocase ABCB1 (Homo sapiens, UniProt P08183) (assay: TP_TRANSPORTER: transepithelial transport in MDR1-expressing LLC-PK1 cells). Conditions: pig.
Type: functional, cell-based

Chain of ATP-dependent translocase ABCB1 (P08183 whole entry): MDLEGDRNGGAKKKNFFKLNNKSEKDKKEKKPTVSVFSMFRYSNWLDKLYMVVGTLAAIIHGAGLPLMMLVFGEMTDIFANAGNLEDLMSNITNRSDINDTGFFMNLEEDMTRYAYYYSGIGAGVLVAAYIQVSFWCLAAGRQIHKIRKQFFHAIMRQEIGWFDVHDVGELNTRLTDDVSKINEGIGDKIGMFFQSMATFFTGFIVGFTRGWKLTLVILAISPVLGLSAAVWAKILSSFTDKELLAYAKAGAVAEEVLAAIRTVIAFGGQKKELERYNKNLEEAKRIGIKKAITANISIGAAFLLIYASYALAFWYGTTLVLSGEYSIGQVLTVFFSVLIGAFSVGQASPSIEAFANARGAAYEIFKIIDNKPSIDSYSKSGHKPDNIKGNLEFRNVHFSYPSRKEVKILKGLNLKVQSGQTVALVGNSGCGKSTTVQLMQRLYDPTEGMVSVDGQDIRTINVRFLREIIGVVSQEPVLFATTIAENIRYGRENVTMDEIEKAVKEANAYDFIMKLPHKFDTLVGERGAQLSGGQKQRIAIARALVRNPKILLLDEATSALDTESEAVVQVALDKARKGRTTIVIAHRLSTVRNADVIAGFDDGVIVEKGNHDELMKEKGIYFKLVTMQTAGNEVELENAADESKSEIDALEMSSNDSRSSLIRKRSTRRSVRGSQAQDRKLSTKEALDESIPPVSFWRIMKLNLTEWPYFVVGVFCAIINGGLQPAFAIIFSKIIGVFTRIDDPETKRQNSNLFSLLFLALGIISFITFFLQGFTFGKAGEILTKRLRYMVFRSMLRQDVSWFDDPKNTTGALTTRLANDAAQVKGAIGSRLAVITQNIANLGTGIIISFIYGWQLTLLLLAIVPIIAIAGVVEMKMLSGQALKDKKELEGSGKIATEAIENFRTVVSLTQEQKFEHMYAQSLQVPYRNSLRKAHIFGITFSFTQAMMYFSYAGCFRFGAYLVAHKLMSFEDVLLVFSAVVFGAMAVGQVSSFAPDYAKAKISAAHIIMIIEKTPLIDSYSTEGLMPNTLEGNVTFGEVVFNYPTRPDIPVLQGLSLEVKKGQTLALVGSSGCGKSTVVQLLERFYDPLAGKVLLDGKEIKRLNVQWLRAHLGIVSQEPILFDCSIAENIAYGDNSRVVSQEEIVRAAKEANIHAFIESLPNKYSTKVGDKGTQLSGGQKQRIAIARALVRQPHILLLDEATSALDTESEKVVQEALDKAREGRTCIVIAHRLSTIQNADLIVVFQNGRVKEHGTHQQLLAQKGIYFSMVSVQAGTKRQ

| SMILES | Activity |
| --- | --- |
| C[C@]12CCC(=O)C=C1[C@@H](O)C[C@@H]1[C@@H]2[C@@H](O)C[C@@]2(C)[C@H]1CC[C@]2(O)C(=O)CO | substrate [+] |
| C[C@]12CCC(=O)C=C1[C@H](O)C[C@@H]1[C@@H]2[C@@H](O)C[C@@]2(C)[C@H]1CC[C@]2(O)C(=O)CO | substrate [+] |
| C[C@H]1C[C@H]2[C@@H]3CCC4=CC(=O)C=C[C@]4(C)[C@@]3(F)[C@@H](O)C[C@]2(C)[C@@]1(O)C(=O)CO [BETAMETHASONE] | substrate [+] |
| C[C@]12CCC(=O)C=C1CC[C@@H]1[C@@H]2C(=O)C[C@@]2(C)[C@H]1CC[C@]2(O)C(=O)CO [CORTISONE] | substrate [+] |
| C[C@]12CCC(=O)C=C1CC[C@@H]1[C@@H]2[C@@H](O)C[C@@]2(C)[C@H]1CC[C@]2(O)C(=O)CO [HYDROCORTISONE] | substrate [+] |
| C[C@@H]1C[C@H]2[C@@H]3CCC4=CC(=O)C=C[C@]4(C)[C@@]3(F)[C@@H](O)C[C@]2(C)[C@@]1(O)C(=O)CO [DEXAMETHASONE] | substrate [+] |
| C[C@H]1C[C@@H]2[C@H]([C@@H](O)C[C@@]3(C)[C@H]2CC[C@]3(O)C(=O)CO)[C@@]2(C)C=CC(=O)C=C12 [METHYLPREDNISOLONE] | substrate [+] |
| C[C@]12C=CC(=O)C=C1CC[C@@H]1[C@@H]2C(=O)C[C@@]2(C)[C@H]1CC[C@]2(O)C(=O)CO [PREDNISONE] | substrate [+] |
| C[C@]12C=CC(=O)C=C1CC[C@@H]1[C@@H]2[C@@H](O)C[C@@]2(C)[C@H]1CC[C@]2(O)C(=O)CO [PREDNISOLONE] | substrate [+] |
